From patent US9133158B2, “Bicyclic dihydroisoquinoline-1-one derivatives” (Hoffmann-La Roche Inc., priority 2011, dated 2015)

Experiments:
human CYP11B2 = molecular target: T1, human CYP11B2 (Homo sapiens, UniProt P19099); assay: G-402 cellular enzyme assay, human CYP11B2 (aldosterone release, HTRF); assay type: cell-based; details: G-402 cells, 1 μM Deoxycorticosterone
T1 construct: expressed in transfected cells
T1 sequence (P19099 25-503): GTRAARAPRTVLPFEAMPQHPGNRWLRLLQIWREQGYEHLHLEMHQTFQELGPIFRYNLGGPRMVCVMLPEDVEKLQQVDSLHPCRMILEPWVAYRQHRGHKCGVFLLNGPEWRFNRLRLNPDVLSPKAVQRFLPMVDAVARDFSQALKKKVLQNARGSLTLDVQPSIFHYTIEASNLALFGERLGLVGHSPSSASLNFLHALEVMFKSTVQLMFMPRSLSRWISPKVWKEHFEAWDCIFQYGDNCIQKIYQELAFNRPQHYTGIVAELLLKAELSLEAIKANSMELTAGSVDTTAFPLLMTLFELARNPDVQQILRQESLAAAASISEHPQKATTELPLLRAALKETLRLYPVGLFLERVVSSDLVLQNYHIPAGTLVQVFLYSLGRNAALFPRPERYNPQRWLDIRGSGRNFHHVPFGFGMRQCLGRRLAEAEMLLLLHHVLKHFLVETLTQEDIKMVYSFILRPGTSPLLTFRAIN
Summary of the method: (§1)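 Inhibition of steroid release was taken as enzyme inhibition. CYP11B1 assays used 1 μM deoxycortisol with cortisol detection, CYP11B2 assays 1 μM deoxycorticosterone with aldosterone detection, both by HTRF after 16 h in stable G-402 cells; EC50 from least-squares MMF fit.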

human CYP11B1 = molecular target: T2, human CYP11B1 (Homo sapiens, UniProt P15538); assay: G-402 cellular enzyme assay, human CYP11B1 (cortisol release, HTRF); assay type: cell-based; details: G-402 cells, 1 μM Deoxycortisol
T2 construct: expressed in transfected cells
T2 sequence (P15538 25-503): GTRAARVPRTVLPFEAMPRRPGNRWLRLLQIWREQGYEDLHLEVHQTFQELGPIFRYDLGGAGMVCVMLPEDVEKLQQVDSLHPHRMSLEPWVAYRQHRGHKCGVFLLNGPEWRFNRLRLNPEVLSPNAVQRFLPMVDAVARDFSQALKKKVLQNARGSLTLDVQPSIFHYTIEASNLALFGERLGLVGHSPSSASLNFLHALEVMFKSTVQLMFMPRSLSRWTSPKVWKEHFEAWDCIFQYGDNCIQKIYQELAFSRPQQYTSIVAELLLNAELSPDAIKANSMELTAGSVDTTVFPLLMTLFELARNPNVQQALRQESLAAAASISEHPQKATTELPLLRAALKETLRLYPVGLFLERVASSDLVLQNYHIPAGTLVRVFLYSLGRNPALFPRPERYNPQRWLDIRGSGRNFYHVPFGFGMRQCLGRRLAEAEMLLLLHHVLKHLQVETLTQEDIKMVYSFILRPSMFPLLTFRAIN
Summary of the method: as §1

EC50 (human CYP11B2) [nM] | EC50 (human CYP11B1) [nM] | Structure (SMILES)
8.4 | 514 | CCC(=O)N1CCC(Oc2cncc(N3C(=O)c4ccc(Cl)cc4C3(C)C)c2)C1 (stereo not drawn) [Example 444, 5-Chloro-3,3-dimethyl-2-[5-(1-propionyl-pyrrolidin-3-yloxy)-pyridin-3-yl]-2,3-dihydro-isoindol-1-one]
101 | 341 | CCCc1nccn1Cc1cncc(N2CCc3cc(Cl)ccc3C2=O)c1 [Example 161, 6-Chloro-2-[5-(2-propyl-imidazol-1-ylmethyl)-pyridin-3-yl]-3,4-dihydro-2H-isoquinolin-1-one]
126 | 1920 | O=C1c2ccc(Cl)cc2CCN1c1cncc(CN2CCC[C@H]2CO)c1 [Example 149, 6-Chloro-2-[5-((S)-2-hydroxymethyl-pyrrolidin-1-ylmethyl)-pyridin-3-yl]-3,4-dihydro-2H-isuquinolin-1-one]
3750 | 6080 | CN(C)C(=O)c1cncc(N2CCc3cc(Cl)ccc3C2=O)c1 [Example 41, 5-(6-Chloro-1-oxo-3,4-dihydro-1H-isoquinolin-2-yl)-N,N-dimethyl-nicotinamide]
65.3 | 473 | O=C1c2ccc(Cl)cc2CCN1c1cncc(COCC(F)(F)F)c1 [Example 202, 6-Chloro-2-[5-(2,2,2-trifluoro-ethoxymethyl)-pyridin-3-yl]-3,4-dihydro-2H-isoquinolin-1-one]
44.5 | 1580 | O=C1c2ccc(Cl)cc2CCN1c1cncc(-c2cccc(Cl)c2)c1 [Example 234, 6-Chloro-2-[5-(3-chloro-phenyl)-pyridin-3-yl]-3,4-dihydro-2H-isoquinolin-1-one]
2200 | 10300 | NCc1cncc(N2CCc3cc(Cl)ccc3C2=O)c1 [Example 192, 2-(5-Aminomethyl-pyridin-3-yl)-6-chloro-3,4-dihydro-2H-isoquinolin-1-one]
92.2 | 2840 | CCS(=O)(=O)NCc1cncc(N2C(=O)c3ccc(Cl)cc3C2(C)C)c1 [Example 387, Ethanesulfonic acid [5-(6-chloro-1,1-dimethyl-3-oxo-1,3-dihydro-isoindol-2-yl)-pyridin-3-ylmethyl]-amide]
761 | 1450 | COC(c1ccncc1N1CCc2cc(Cl)ccc2C1=O)C1CC1 (stereo not drawn) [Example 78, 6-Chloro-2-[4-(cyclopropyl-methoxy-methyl)-pyridin-3-yl]-3,4-dihydro-2H-isoquinolin-1-one]
6.3 | 27.9 | CC(c1cncc(N2CCc3cc(Cl)ccc3C2=O)c1)n1ccnc1 (stereo not drawn) [Example 270, 6-Chloro-2-[5-(1-imidazol-1-yl-ethyl)-pyridin-3-yl]-3,4-dihydro-2H-isoquinolin-1-one]
1860 | 4690 | Cn1ccnc1-c1cncc(N2CCc3cc(Cl)ccc3C2=O)c1 [Example 244, 6-Chloro-2-[5-(1-methyl-1H-imidazol-2-yl)-pyridin-3-yl]-3,4-dihydro-2H-isoquinolin-1-one]
37.8 | 527 | CC(O)c1cncc(N2C(=O)c3ccc(Cl)cc3C2(C)C)c1 (stereo not drawn) [Example 132, 5-Chloro-2-[5-(1-hydroxy-ethyl)-pyridin-3-yl]-3,3-dimethyl-2,3-dihydro-isoindol-1-one]
3.5 | 14.6 | O=C1c2ccc(Cl)cc2CCN1c1cncc(CN2CCC3(COC3)C2)c1 [Example 170, 6-Chloro-2-[5-(2-oxa-6-aza-spiro[3.4]oct-6-ylmethyl)-pyridin-3-yl]-3,4-dihydro-2H-isoquinolin-1-one]
20.5 | 249 | CCC1c2cc(Cl)ccc2C(=O)N1c1cnccc1Cl (stereo not drawn) [Example 284, 5-Chloro-2-(4-chloro-pyridin-3-yl)-3-ethyl-2,3-dihydro-isoindol-1-one]
271 | 21600 | O=C1c2ccc(Cl)cc2CCN1c1cncc(-c2cc(F)cc(F)c2)c1 [Example 233, 6-Chloro-2-[5-(3,5-difluoro-phenyl)-pyridin-3-yl]-3,4-dihydro-2H-isoquinolin-1-one]
